ChEMBL document CHEMBL1127756 (Bioorg Med Chem Lett, 1994)
Numbered stars: 1 amine (or outer) side, 2 acyl side, 3 side chain; on linkers, the order of the positions; unused ones are H or OH. Square brackets hold non-standard residues; d marks the D form. Peptide text beside a SMILES is read from it. X1 = C/C=C/CC[C@H](N[*:1])C(=O)[*:2]; pGlu = O=C1CC[C@@H](C(=O)O)N1; Ahp(2) = CCCCC[C@H](N)C(=O)O

Experiments:
[1] = biological target: T1, Gastrin/cholecystokinin type B receptor (Mus musculus, UniProt P56481); assay: Concentration producing half-maximal inhibition of specific binding of [125I]Bolton-Hunter CCK-8 to Cholecystokinin type B receptor in the mouse cerebral cortex; format: tissue-based
T1 sequence (P56481 whole entry): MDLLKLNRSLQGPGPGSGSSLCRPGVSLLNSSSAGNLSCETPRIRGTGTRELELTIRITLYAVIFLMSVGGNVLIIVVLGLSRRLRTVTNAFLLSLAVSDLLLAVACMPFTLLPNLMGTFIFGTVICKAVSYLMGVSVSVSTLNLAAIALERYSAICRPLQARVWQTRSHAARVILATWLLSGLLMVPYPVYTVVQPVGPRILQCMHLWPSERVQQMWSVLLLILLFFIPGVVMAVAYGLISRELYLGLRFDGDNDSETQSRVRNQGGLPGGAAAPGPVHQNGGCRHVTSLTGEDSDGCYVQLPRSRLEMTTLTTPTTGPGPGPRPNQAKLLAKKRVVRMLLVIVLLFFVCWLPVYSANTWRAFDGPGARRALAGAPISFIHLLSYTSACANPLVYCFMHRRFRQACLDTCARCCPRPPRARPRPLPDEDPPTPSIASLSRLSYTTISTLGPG

[2] = biological target: T2, Cholecystokinin receptor type A (Rattus norvegicus, UniProt P30551); assay: Concentration producing half-maximal inhibition of specific binding of [125I]Bolton-Hunter CCK-8 to Cholecystokinin type A receptor in the rat pancreas
T2 sequence (P30551 whole entry): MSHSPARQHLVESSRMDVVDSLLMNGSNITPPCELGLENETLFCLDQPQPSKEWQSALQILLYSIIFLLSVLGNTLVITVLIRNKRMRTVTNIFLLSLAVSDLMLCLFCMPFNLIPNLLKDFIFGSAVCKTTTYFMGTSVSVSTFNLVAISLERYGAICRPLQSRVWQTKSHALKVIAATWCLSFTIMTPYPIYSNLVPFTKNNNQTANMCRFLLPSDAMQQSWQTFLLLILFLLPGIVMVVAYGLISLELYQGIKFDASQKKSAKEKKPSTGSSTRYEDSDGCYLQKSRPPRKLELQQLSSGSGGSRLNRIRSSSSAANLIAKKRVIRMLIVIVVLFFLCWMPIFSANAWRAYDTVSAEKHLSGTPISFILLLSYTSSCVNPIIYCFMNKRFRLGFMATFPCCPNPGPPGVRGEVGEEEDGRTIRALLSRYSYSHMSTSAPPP

Neuromedin-K receptor = biological target: T3, Neuromedin-K receptor (Cavia porcellus, UniProt P30098); assay: (§1) Concentration producing half-maximal inhibition of specific binding of [3H]senktide to Tachykinin receptor 3 in the guinea pig cerebral cortex; format: tissue-based
T3 sequence (P30098 whole entry): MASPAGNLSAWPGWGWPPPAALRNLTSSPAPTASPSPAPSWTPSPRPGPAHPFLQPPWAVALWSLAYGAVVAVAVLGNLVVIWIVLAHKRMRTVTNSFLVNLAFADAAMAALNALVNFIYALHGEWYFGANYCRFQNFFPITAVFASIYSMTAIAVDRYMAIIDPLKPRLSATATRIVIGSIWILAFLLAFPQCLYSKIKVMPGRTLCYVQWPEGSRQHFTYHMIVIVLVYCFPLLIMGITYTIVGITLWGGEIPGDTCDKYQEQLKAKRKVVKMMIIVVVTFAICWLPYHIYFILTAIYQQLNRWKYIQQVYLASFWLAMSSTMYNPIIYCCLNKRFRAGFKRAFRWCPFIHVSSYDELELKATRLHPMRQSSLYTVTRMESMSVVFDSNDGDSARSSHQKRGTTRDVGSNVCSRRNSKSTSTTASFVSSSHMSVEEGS

Substance-K receptor = biological target: T4, Substance-K receptor (Mesocricetus auratus, UniProt P51144); assay: (§2) Concentration producing half-maximal inhibition of specific binding of. [125I]neurokinin A to NK-2 receptors in the hamster urinary bladder; format: single protein
T4 sequence (P51144 whole entry): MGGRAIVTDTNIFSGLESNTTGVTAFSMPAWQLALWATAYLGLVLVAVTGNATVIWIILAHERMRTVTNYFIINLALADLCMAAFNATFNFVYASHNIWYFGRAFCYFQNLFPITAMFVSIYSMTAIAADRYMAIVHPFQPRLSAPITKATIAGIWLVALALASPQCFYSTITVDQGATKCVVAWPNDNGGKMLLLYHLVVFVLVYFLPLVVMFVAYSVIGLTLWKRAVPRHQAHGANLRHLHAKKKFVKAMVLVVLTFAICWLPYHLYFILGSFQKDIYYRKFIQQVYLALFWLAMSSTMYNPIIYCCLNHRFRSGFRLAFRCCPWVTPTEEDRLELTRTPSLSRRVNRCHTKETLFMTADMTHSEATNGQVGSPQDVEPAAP

Substance-P receptor = Substance-P receptor (Cavia porcellus, UniProt P30547); assay: Concentration producing half-maximal inhibition of specific binding of. [125I]Bolton-Hunter Substance P to NK-1 receptors in the guinea pig cerebral cortex; format: tissue-based
[3] = biological target: T5, Substance-K receptor (Mesocricetus auratus) (UniProt P51144); assay: as §2; settings: Cricetulus griseus
T5 sequence (whole entry): T4 sequence (P51144 whole entry)

[4] = biological target: T6, Neuromedin-K receptor (Cavia porcellus) (UniProt P30098); assay: as §1; format: tissue-based
T6 sequence (whole entry): T3 sequence (P30098 whole entry)

Substance-P receptor, sequence (P30547 whole entry): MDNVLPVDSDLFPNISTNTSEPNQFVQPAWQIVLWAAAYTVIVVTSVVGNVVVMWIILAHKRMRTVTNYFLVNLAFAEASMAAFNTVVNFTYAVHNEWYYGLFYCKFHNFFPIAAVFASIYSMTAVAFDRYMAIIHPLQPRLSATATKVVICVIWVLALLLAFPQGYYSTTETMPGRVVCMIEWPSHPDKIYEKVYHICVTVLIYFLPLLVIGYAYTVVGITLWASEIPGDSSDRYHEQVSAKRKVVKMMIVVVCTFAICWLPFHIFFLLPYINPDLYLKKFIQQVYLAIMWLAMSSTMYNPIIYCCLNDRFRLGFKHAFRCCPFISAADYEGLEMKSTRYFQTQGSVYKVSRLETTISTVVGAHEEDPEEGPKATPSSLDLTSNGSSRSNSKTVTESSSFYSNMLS

Row | Compound | IC50 [2] | IC50 (Neuromedin-K receptor) | IC50 (Substance-K receptor) | IC50 (Substance-P receptor) | other results
1 | C/C=C/CC[C@H](NC(=O)[C@@H](N)Cc1c[nH]c2ccccc12)C(=O)N[C@@H](CC(=O)O)C(=O)N[C@@H](Cc1ccccc1)C(N)=O | 8.16 µM | – | – | – | IC50 [1]: 0.0049 µM
2 | C/C=C/CC[C@H](NC(=O)[C@H](CC(C)C)NC(=O)CNC(=O)[C@H](Cc1ccccc1)NC(=O)[C@H](Cc1ccccc1)NC(=O)[C@H](CCC(N)=O)NC(=O)[C@H](CCC(N)=O)NC(C)=O)C(N)=O (Ac-QQFFGL[X1]-NH2) | – | 0.882 µM | 1.37 µM | 0.115 µM | –
3 | CSCC[C@H](NC(=O)[C@H](CC(C)C)NC(=O)CNC(=O)[C@H](Cc1ccccc1)NC(=O)[C@H](Cc1ccccc1)NC(=O)[C@H](CCC(N)=O)NC(=O)[C@@H]1CCC(=O)N1)C(N)=O ([pGlu]QFFGLM-NH2) | – | – | – | 0.0254 µM | –
4 | C/C=C/CC[C@H](NC(=O)[C@H](CC(C)C)NC(=O)CNC(=O)[C@H](Cc1ccccc1)NC(=O)[C@H](Cc1ccccc1)NC(=O)[C@H](CCC(N)=O)NC(=O)[C@@H]1CCC(=O)N1)C(N)=O ([pGlu]QFFGL[X1]-NH2) | – | 1.88 µM | 2.9 µM | 0.366 µM | –
5 | Ac-QQFFGLM-NH2 | – | 0.276 µM | 1.62 µM | 0.0295 µM | –

More lines, main results first:

Row | IC50 [2] | IC50 (Neuromedin-K receptor) | IC50 (Substance-K receptor) | IC50 (Substance-P receptor) | Compound | other results
6 | – | 0.533 µM | 0.637 µM | 0.0447 µM | CCCCC[C@H](NC(=O)[C@H](CC(C)C)NC(=O)CNC(=O)[C@H](Cc1ccccc1)NC(=O)[C@H](Cc1ccccc1)NC(=O)[C@H](CCC(N)=O)NC(=O)[C@H](CCC(N)=O)NC(C)=O)C(N)=O (Ac-QQFFGL[Ahp(2)]-NH2) | –
7 | 8.49 µM | – | – | – | CCCCC[C@H](NC(=O)[C@@H](N)Cc1c[nH]c2ccccc12)C(=O)N[C@@H](CC(=O)O)C(=O)N[C@@H](Cc1ccccc1)C(N)=O (H-W[Ahp(2)]DF-NH2) | IC50 [1]: 0.00283 µM
8 | – | – | – | 0.097 µM | CCCCC[C@H](NC(=O)[C@H](CC(C)C)NC(=O)CNC(=O)[C@H](Cc1ccccc1)NC(=O)[C@H](Cc1ccccc1)NC(=O)[C@H](CCC(N)=O)NC(=O)[C@@H]1CCC(=O)N1)C(N)=O ([pGlu]QFFGL[Ahp(2)]-NH2) | inhibition [3]: 47%; inhibition [4]: 25%
9 | 4.25 µM | – | – | – | CSCC[C@H](NC(=O)[C@@H](N)Cc1c[nH]c2ccccc12)C(=O)N[C@@H](CC(=O)O)C(=O)N[C@@H](Cc1ccccc1)C(N)=O [TETRAGASTRIN] | –
10 | – | 1.13 µM | 3.29 µM | 0.0496 µM | H-QQFFGLM-NH2 | –
